Assay results reported in ChEMBL document CHEMBL5537145, “Design, synthesis and evaluation of novel UDCA-aminopyrimidine hybrids as ATX inhibitors for the treatment of hepatic and pulmonary fibrosis” (Eur J Med Chem, 2024).
pIC50: −log10 of the molar value. Active and inactive are the calls of the source. The rule behind the calls is not given here.

Tests used:
[1] = biological target: T1, Autotaxin (Homo sapiens, UniProt Q13822); test: Inhibition of human ATX in using LPC as substrate by fluorescence based microplate reader assay
[2] = tested on: LX-2; test: Anti-hepatic fibrosis activity against TGF-beta1 stimulated human LX2 cells assessed as reduction in FN mRNA expression level at 5 to 20 uM incubated for 48 hrs by quantitative real-time PCR analysis; type: functional, cell-based; settings: dose 5-20 µM
[3] = tested on: LX-2; test: Anti-hepatic fibrosis activity against TGF-beta1 stimulated human LX2 cells assessed as reduction in Smad2 phosphorylation incubated for 48 hrs by Western blotting analysis; type: functional, cell-based; settings: dose 5-20 µM
[4] = tested on: LX-2; test: Anti-hepatic fibrosis activity against TGF-beta1 stimulated human LX2 cells assessed as reduction in COL1A1 mRNA expression level at 5 to 20 uM incubated for 48 hrs by quantitative real-time PCR analysis; type: functional, cell-based; settings: dose 5-20 µM
[5] = tested on: CCC-HPF-1; test: Anti-pulmonary fibrosis activity against TGF-beta1 stimulated human CCC-HPF-1 cells assessed as reduction in alpha-SMA mRNA expression level at 5 to 20 uM incubated for 48 hrs by quantitative real-time PCR analysis; type: functional, cell-based; settings: dose 5-20 µM
[6] = tested on: CCC-HPF-1; test: Anti-pulmonary fibrosis activity against TGF-beta1 stimulated human CCC-HPF-1 cells assessed as reduction in Smad2 phosphorylation incubated for 48 hrs by Western blotting analysis; type: functional, cell-based; settings: dose 5-20 µM
[7] = tested on: LX-2; test: Anti-hepatic fibrosis activity against TGF-beta1 stimulated human LX2 cells assessed as inhibition of Smad2/3 nuclear translocation at 10 uM incubated for 48 hrs by DAPI staining based immunofluorescence analysis; type: functional, cell-based
[8] = tested on: CCC-HPF-1; test: Anti-migratory activity against TGF-beta1 stimulated human CCC-HPF-1 cells at 10 uM incubated for 24 hrs by light microscopic analysis; type: functional, cell-based
[9] = biological target: T1, Autotaxin; test: Potency index, ratio of GLPG-1690 IC50 to test compound IC50 for inhibition of human ATX in using LPC as substrate by fluorescence based microplate reader assay
[10] = tested on: CCC-HPF-1; test: Anti-pulmonary fibrosis activity against TGF-beta1 stimulated human CCC-HPF-1 cells assessed as reduction in FN protein expression level at 5 to 20 uM incubated for 48 hrs by Western blotting analysis; type: functional, cell-based; settings: dose 5-20 µM
[11] = tested on: CCC-HPF-1; test: Anti-pulmonary fibrosis activity against TGF-beta1 stimulated human CCC-HPF-1 cells assessed as inhibition of Smad2/3 nuclear translocation at 10 uM incubated for 48 hrs by DAPI staining based immunofluorescence analysis; type: functional, cell-based
[12] = tested on: LX-2; test: Cytotoxicity against human LX2 cells assessed as reduction in cell viability at 2.5 to 80 uM incubated for 48 hrs by MTT assay; type: toxicity, cell-based; settings: lx-2, 48 h, dose 2.5-80 µM
[13] = tested on: LX-2; test: Effect on total Smad2 level in TGF-beta1 stimulated human LX2 cells at 5 to 20 uM incubated for 48 hrs by Western blotting analysis; type: functional, cell-based; settings: dose 5-20 µM
[14] = tested on: CCC-HPF-1; test: Cytotoxicity against human CCC-HPF-1 cells assessed as reduction in cell viability at 2.5 to 80 uM incubated for 48 hrs by MTT assay; type: toxicity, cell-based; settings: ccc-hpf-1, 48 h, dose 2.5-80 µM
[15] = tested on: CCC-HPF-1; test: Anti-pulmonary fibrosis activity against TGF-beta1 stimulated human CCC-HPF-1 cells assessed as reduction in FN mRNA expression level at 5 to 20 uM incubated for 48 hrs by quantitative real-time PCR analysis; type: functional, cell-based; settings: dose 5-20 µM
[16] = tested on: LX-2; test: Anti-hepatic fibrosis activity against TGF-beta1 stimulated human LX2 cells assessed as reduction in Smad3 phosphorylation incubated for 48 hrs by Western blotting analysis; type: functional, cell-based; settings: dose 5-20 µM
[17] = tested on: CCC-HPF-1; test: Effect on total Smad3 level in TGF-beta1 stimulated human CCC-HPF-1 cells at 5 to 20 uM incubated for 48 hrs by Western blotting analysis; type: functional, cell-based; settings: dose 5-20 µM
[18] = tested on: LX-2; test: Anti-migratory activity against TGF-beta1 stimulated human LX2 cells at 10 uM incubated for 24 hrs by light microscopic analysis; type: functional, cell-based
[19] = tested on: LX-2; test: Effect on total Smad3 level in TGF-beta1 stimulated human LX2 cells at 5 to 20 uM incubated for 48 hrs by Western blotting analysis; type: functional, cell-based; settings: dose 5-20 µM
[20] = tested on: LX-2; test: Anti-hepatic fibrosis activity against TGF-beta1 stimulated human LX2 cells assessed as reduction in alpha-SMA protein expression level at 5 to 20 uM incubated for 48 hrs by Western blotting analysis; type: functional, cell-based; settings: dose 5-20 µM
[21] = tested on: LX-2; test: Anti-hepatic fibrosis activity against TGF-beta1 stimulated human LX2 cells assessed as reduction in alpha-SMA mRNA expression level at 5 to 20 uM incubated for 48 hrs by quantitative real-time PCR analysis; type: functional, cell-based; settings: dose 5-20 µM
[22] = tested on: CCC-HPF-1; test: Effect on total Smad2 level in TGF-beta1 stimulated human CCC-HPF-1 cells at 5 to 20 uM incubated for 48 hrs by Western blotting analysis; type: functional, cell-based; settings: dose 5-20 µM
[23] = tested on: LX-2; test: Anti-hepatic fibrosis activity against TGF-beta1 stimulated human LX2 cells assessed as reduction in COL1A1 protein expression level at 5 to 20 uM incubated for 48 hrs by Western blotting analysis; type: functional, cell-based; settings: dose 5-20 µM
[24] = tested on: CCC-HPF-1; test: Anti-pulmonary fibrosis activity against TGF-beta1 stimulated human CCC-HPF-1 cells assessed as reduction in alpha-SMA protein expression level at 5 to 20 uM incubated for 48 hrs by Western blotting analysis; type: functional, cell-based; settings: dose 5-20 µM
[25] = tested on: CCC-HPF-1; test: Anti-pulmonary fibrosis activity against TGF-beta1 stimulated human CCC-HPF-1 cells assessed as reduction in Smad3 phosphorylation incubated for 48 hrs by Western blotting analysis; type: functional, cell-based; settings: dose 5-20 µM
[26] = tested on: CCC-HPF-1; test: Anti-pulmonary fibrosis activity against TGF-beta1 stimulated human CCC-HPF-1 cells assessed as reduction in COL1A1 mRNA expression level at 5 to 20 uM incubated for 48 hrs by quantitative real-time PCR analysis; type: functional, cell-based; settings: dose 5-20 µM
[27] = tested on: CCC-HPF-1; test: Anti-pulmonary fibrosis activity against TGF-beta1 stimulated human CCC-HPF-1 cells assessed as reduction in COL1A1 protein expression level at 5 to 20 uM incubated for 48 hrs by Western blotting analysis; type: functional, cell-based; settings: dose 5-20 µM
[28] = tested on: LX-2; test: Anti-hepatic fibrosis activity against TGF-beta1 stimulated human LX2 cells assessed as reduction in FN protein expression level at 5 to 20 uM incubated for 48 hrs by Western blotting analysis; type: functional, cell-based; settings: dose 5-20 µM

C[C@H](CCC(=O)O)[C@H]1CC[C@H]2[C@@H]3[C@@H](O)C[C@@H]4C[C@H](O)CC[C@]4(C)[C@H]3CC[C@]12C [URSODIOL]
pIC50 [1]: 5.03

C[C@H](CCC(=O)N1CCc2nc(NCCc3c[nH]c4ccccc34)ncc2C1)[C@H]1CC[C@H]2[C@@H]3[C@@H](O)C[C@@H]4C[C@H](O)CC[C@]4(C)[C@H]3CC[C@]12C
pIC50 [1]: 6.47

C[C@H](CCC(=O)N1CCc2nc(NCCc3cccc(Br)c3)ncc2C1)[C@H]1CC[C@H]2[C@@H]3[C@@H](O)C[C@@H]4C[C@H](O)CC[C@]4(C)[C@H]3CC[C@]12C
pIC50 [1]: 7.56

C[C@H](CCC(=O)N1Cc2cnc(NC3Cc4ccccc4C3)nc2C1)[C@H]1CC[C@H]2[C@@H]3[C@@H](O)C[C@@H]4C[C@H](O)CC[C@]4(C)[C@H]3CC[C@]12C
pIC50 [1]: 6.36

C[C@H](CCC(=O)N1CCc2nc(NCc3ccc(Br)cc3)ncc2C1)[C@H]1CC[C@H]2[C@@H]3[C@@H](O)C[C@@H]4C[C@H](O)CC[C@]4(C)[C@H]3CC[C@]12C
pIC50 [1]: 6.61

C[C@H](CCC(=O)N1CCc2nc(NCCCc3ccccc3)ncc2C1)[C@H]1CC[C@H]2[C@@H]3[C@@H](O)C[C@@H]4C[C@H](O)CC[C@]4(C)[C@H]3CC[C@]12C
pIC50 [1]: 6.78

C[C@H](CCC(=O)N1CCc2nc(NCCc3cccc(F)c3)ncc2C1)[C@H]1CC[C@H]2[C@@H]3[C@@H](O)C[C@@H]4C[C@H](O)CC[C@]4(C)[C@H]3CC[C@]12C
pIC50 [1]: 7.38

C[C@H](CCC(=O)N1CCc2nc(NC3Cc4ccccc4C3)ncc2C1)[C@H]1CC[C@H]2[C@@H]3[C@@H](O)C[C@@H]4C[C@H](O)CC[C@]4(C)[C@H]3CC[C@]12C
pIC50 [1]: 8.12
Activity [2]: Active
Activity [3]: Dose-Dependent Effect
Activity [4]: Active
Activity [5]: Active
Activity [6]: Dose-Dependent Effect
Activity [7]: Active
Activity [8]: Active
Ratio IC50 [9]: 9
Activity [10]: Active
Activity [11]: Active
Activity [12]: Non-Toxic
Activity [13]: inactive
Activity [14]: Non-Toxic
Activity [15]: Active
Activity [16]: Dose-Dependent Effect
Activity [17]: inactive
Activity [18]: Active
Activity [19]: inactive
Activity [20]: Active
Activity [21]: Active
Activity [22]: inactive
Activity [23]: Active
Activity [24]: Active
Activity [25]: Dose-Dependent Effect
Activity [26]: Active
Activity [27]: Active
Activity [28]: Active

C[C@H](CCC(=O)N1CCc2nc(NCCc3ccccc3Br)ncc2C1)[C@H]1CC[C@H]2[C@@H]3[C@@H](O)C[C@@H]4C[C@H](O)CC[C@]4(C)[C@H]3CC[C@]12C
pIC50 [1]: 7.03

Cc1ccc(CCNc2ncc3c(n2)CCN(C(=O)CC[C@@H](C)[C@H]2CC[C@H]4[C@@H]5[C@@H](O)C[C@@H]6C[C@H](O)CC[C@]6(C)[C@H]5CC[C@]24C)C3)cc1
pIC50 [1]: 6.77

COc1ccc(CCNc2ncc3c(n2)CCN(C(=O)CC[C@@H](C)[C@H]2CC[C@H]4[C@@H]5[C@@H](O)C[C@@H]6C[C@H](O)CC[C@]6(C)[C@H]5CC[C@]24C)C3)cc1
pIC50 [1]: 6.87

C[C@H](CCC(=O)N1CCc2nc(N3CCC(c4ccccc4)CC3)ncc2C1)[C@H]1CC[C@H]2[C@@H]3[C@@H](O)C[C@@H]4C[C@H](O)CC[C@]4(C)[C@H]3CC[C@]12C
pIC50 [1]: 7.36

C[C@H](CCC(=O)N1CCc2nc(NCCc3ccccc3Cl)ncc2C1)[C@H]1CC[C@H]2[C@@H]3[C@@H](O)C[C@@H]4C[C@H](O)CC[C@]4(C)[C@H]3CC[C@]12C
pIC50 [1]: 6.99

C[C@H](CCC(=O)N1CCc2nc(NCCc3cccc(Cl)c3)ncc2C1)[C@H]1CC[C@H]2[C@@H]3[C@@H](O)C[C@@H]4C[C@H](O)CC[C@]4(C)[C@H]3CC[C@]12C
pIC50 [1]: 6.78

C[C@H](CCC(=O)N1CCc2nc(NCCc3ccc(F)cc3)ncc2C1)[C@H]1CC[C@H]2[C@@H]3[C@@H](O)C[C@@H]4C[C@H](O)CC[C@]4(C)[C@H]3CC[C@]12C
pIC50 [1]: 7.04

C[C@H](CCC(=O)N1CCc2nc(NCCc3ccccc3F)ncc2C1)[C@H]1CC[C@H]2[C@@H]3[C@@H](O)C[C@@H]4C[C@H](O)CC[C@]4(C)[C@H]3CC[C@]12C
pIC50 [1]: 7.81

C[C@H](CCC(=O)N1CCc2nc(NCCc3ccccc3)ncc2C1)[C@H]1CC[C@H]2[C@@H]3[C@@H](O)C[C@@H]4C[C@H](O)CC[C@]4(C)[C@H]3CC[C@]12C
pIC50 [1]: 7.24

C[C@H](CCC(=O)N1CCc2nc(NCCc3ccc(Br)cc3)ncc2C1)[C@H]1CC[C@H]2[C@@H]3[C@@H](O)C[C@@H]4C[C@H](O)CC[C@]4(C)[C@H]3CC[C@]12C
pIC50 [1]: 7.33

C[C@H](CCC(=O)N1CCc2nc(NCCc3ccncc3)ncc2C1)[C@H]1CC[C@H]2[C@@H]3[C@@H](O)C[C@@H]4C[C@H](O)CC[C@]4(C)[C@H]3CC[C@]12C
pIC50 [1]: 7.45

C[C@H](CCC(=O)N1CCc2nc(NCc3cc(Cl)cc(Cl)c3)ncc2C1)[C@H]1CC[C@H]2[C@@H]3[C@@H](O)C[C@@H]4C[C@H](O)CC[C@]4(C)[C@H]3CC[C@]12C
pIC50 [1]: 7.40

C[C@H](CCC(=O)N1CCc2nc(NCc3ccccc3)ncc2C1)[C@H]1CC[C@H]2[C@@H]3[C@@H](O)C[C@@H]4C[C@H](O)CC[C@]4(C)[C@H]3CC[C@]12C
pIC50 [1]: 6.47

C[C@H](CCC(=O)N1CCc2nc(NC3Cc4ccc(Br)cc4C3)ncc2C1)[C@H]1CC[C@H]2[C@@H]3[C@@H](O)C[C@@H]4C[C@H](O)CC[C@]4(C)[C@H]3CC[C@]12C (some centres undefined)
pIC50 [1]: 7.81
